US20220119354A1, “DIAMINO-SUBSTITUTED PYRIDINES AND PYRIMIDINES AS HERBICIDES” (FMC Corporation, priority 2019, published 2022)

Experiments:
Type in all cases: in vivo
[1] = system: barnyardgrass (Echinochloa crus-galli); assay: Test A preemergence, barnyardgrass; details: 0 to 100 scale, 0 is no effect, 100 is complete control
Outline: (§1)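 Greenhouse pot test, loam/sand soil. Pre: directed soil spray at planting; post: foliar spray at 1–2 leaf stage (2–10 cm). Chemical in non-phytotoxic solvent + surfactant. Visual rating ~10 d, 0 = no effect, 100 = complete control.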

kochia (Kochia scoparia) [2] = assay: Test A preemergence, kochia; details: 0 to 100 scale, 0 is no effect, 100 is complete control
Outline: as §1

[3] = system: ragweed (common ragweed, Ambrosia elatior); assay: Test A preemergence, ragweed; details: 0 to 100 scale, 0 is no effect, 100 is complete control
Outline: as §1

[4] = system: ryegrass, Italian (Lolium multiflorum); assay: Test A preemergence, Italian ryegrass; details: 0 to 100 scale, 0 is no effect, 100 is complete control
Outline: as §1

[5] = system: foxtail, giant (Setaria faberii); assay: Test A preemergence, giant foxtail; details: 0 to 100 scale, 0 is no effect, 100 is complete control
Outline: as §1

[6] = system: pigweed (Amaranthus retroflexus); assay: Test A preemergence, pigweed; details: 0 to 100 scale, 0 is no effect, 100 is complete control
Outline: as §1

[7] = system: barnyardgrass (Echinochloa crus-galli); assay: Test A postemergence, barnyardgrass; details: Echinochloa crus-galli, post-emergence, 240 h, 0 to 100 scale, 0 no effect, 100 complete control, read-out: Plant response rating, Barnyardgrass
Outline: as §1

kochia (Kochia scoparia) [8] = assay: Test A postemergence, kochia; details: Bassia scoparia, post-emergence, 240 h, 0 to 100 scale, 0 no effect, 100 complete control, read-out: Plant response rating, Kochia
Outline: as §1

[9] = system: ragweed (common ragweed, Ambrosia elatior); assay: Test A postemergence, ragweed; details: Ambrosia artemisiifolia, post-emergence, 240 h, 0 to 100 scale, 0 no effect, 100 complete control, read-out: Plant response rating, Ragweed
Outline: as §1

[10] = system: ryegrass, Italian (Lolium multiflorum); assay: Test A postemergence, Italian ryegrass; details: Lolium multiflorum, post-emergence, 240 h, 0 to 100 scale, 0 no effect, 100 complete control, read-out: Plant response rating, Ryegrass, Italian
Outline: as §1

[11] = system: foxtail, giant (Setaria faberii); assay: Test A postemergence, giant foxtail; details: Setaria faberi, post-emergence, 240 h, 0 to 100 scale, 0 no effect, 100 complete control, read-out: Plant response rating, Foxtail, Giant
Outline: as §1

[12] = system: pigweed (Amaranthus retroflexus); assay: Test A postemergence, pigweed; details: Amaranthus retroflexus, post-emergence, 240 h, 0 to 100 scale, 0 no effect, 100 complete control, read-out: Plant response rating, Pigweed
Outline: as §1

[13] = system: wheat (Triticum aestivum); assay: Test A postemergence, wheat; details: Triticum aestivum, post-emergence, 240 h, 0 to 100 scale, 0 no effect, 100 complete control, read-out: Plant response rating, Wheat
Outline: as §1

corn (Zea mays) = assay: Test A postemergence, corn; details: Zea mays, post-emergence, 240 h, 0 to 100 scale, 0 no effect, 100 complete control
Outline: as §1

[14] = system: blackgrass (Alopecurus myosuroides); assay: Test A postemergence, blackgrass; details: Alopecurus myosuroides, post-emergence, 240 h, 0 to 100 scale, 0 no effect, 100 complete control, read-out: Plant response rating, Blackgrass
Outline: as §1

[15] = system: galium (catchweed bedstraw, Galium aparine); assay: Test A postemergence, galium; details: Galium, post-emergence, 240 h, 0 to 100 scale, 0 no effect, 100 complete control, read-out: Plant response rating, Galium
Outline: as §1

[16] = system: ducksalad (Heteranthera limosa); assay: Test B flooded paddy test, ducksalad; details: Heteranthera limosa, 360 h; Flood, 250 g ai/ha, applied to paddy water, 2-leaf stage, visual evaluation after 13 to 15 d; read-out: Plant response rating, Ducksalad (0 to 100 scale, 0 is no effect, 100 is complete control)
Outline: (§2)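 Rating: 0 = no effect, 100 = complete control, visual, relative to untreated plants. Conditions: 2-leaf stage, 3 cm flood kept constant, compound put directly into water, 13–15 d greenhouse.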

[17] = system: barnyardgrass (Echinochloa crus-galli); assay: Test B flooded paddy test, barnyardgrass; details: Echinochloa crus-galli, 360 h; Flood, 250 g ai/ha, applied to paddy water, 2-leaf stage, visual evaluation after 13 to 15 d; read-out: Plant response rating, Barnyardgrass (0 to 100 scale, 0 is no effect, 100 is complete control)
Outline: as §2

## C[C@@H](Nc1ncc(C(F)(F)F)c(N)n1)c1cc2cccc(F)c2s1 [Compound 75, N2-[(1R)-1-(7-fluorobenzo[b]thien-2-yl)ethyl]-5-(trifluoromethyl)-2,4-pyrimidinediamine]
[1]; 125 g ai/ha
  Barnyardgrass plant response rating: 90
[1]; 500 g ai/ha
  Barnyardgrass plant response rating: 90
Kochia (Kochia scoparia) [2]; 125 g ai/ha
  Kochia plant response rating: 90
Kochia (Kochia scoparia) [2]; 500 g ai/ha
  Kochia plant response rating: 100
[3]; 125 g ai/ha
  Ragweed plant response rating: 100
[3]; 500 g ai/ha
  Ragweed plant response rating: 100
[4]; 125 g ai/ha
  Ryegrass, Italian plant response rating: 80
[4]; 500 g ai/ha
  Ryegrass, Italian plant response rating: 100
[5]; 125 g ai/ha
  Foxtail, Giant plant response rating: 90
[5]; 500 g ai/ha
  Foxtail, Giant plant response rating: 100
[6]; 125 g ai/ha
  Pigweed plant response rating: 100
[6]; 500 g ai/ha
  Pigweed plant response rating: 100
[7]; 125 g ai/ha
  pest or weed control at 125 g/ha: 30%
[7]; 500 g ai/ha
  pest or weed control at 500 g/ha: 100%
Kochia (Kochia scoparia) [8]; 125 g ai/ha
  pest or weed control at 125 g/ha: 80%
Kochia (Kochia scoparia) [8]; 500 g ai/ha
  pest or weed control at 500 g/ha: 90%
[9]; 125 g ai/ha
  pest or weed control at 125 g/ha: 70%
[9]; 500 g ai/ha
  pest or weed control at 500 g/ha: 90%
[10]; 125 g ai/ha
  pest or weed control at 125 g/ha: 0%
[10]; 500 g ai/ha
  pest or weed control at 500 g/ha: 50%
[11]; 125 g ai/ha
  pest or weed control at 125 g/ha: 60%
[11]; 500 g ai/ha
  pest or weed control at 500 g/ha: 90%
[12]; 125 g ai/ha
  pest or weed control at 125 g/ha: 100%
[12]; 500 g ai/ha
  pest or weed control at 500 g/ha: 100%
[13]; 125 g ai/ha
  plant injury at 125 g/ha: 0%
[13]; 500 g ai/ha
  plant injury at 500 g/ha: 0%
Corn (Zea mays); 125 g ai/ha
  Corn plant response rating (crop injury, 0 = no effect, 100 = complete kill) at 125 g/ha: 0%
Corn (Zea mays); 500 g ai/ha
  Corn plant response rating (crop injury, 0 = no effect, 100 = complete kill) at 500 g/ha: 10%
[14]; 125 g ai/ha
  pest or weed control at 125 g/ha: 0%
[14]; 500 g ai/ha
  pest or weed control at 500 g/ha: 30%
[15]; 125 g ai/ha
  pest or weed control at 125 g/ha: 80%
[15]; 500 g ai/ha
  pest or weed control at 500 g/ha: 80%
[16]
  pest or weed control at 250 g/ha: 95%
[17]
  pest or weed control at 250 g/ha: 40%
